Source: patent US12161650B2, “Pharmaceutical compositions comprising a ryanodine receptor modulator and uses thereof” (priority 2021, dated 2024)
Values joined by “and” are separate entries in the source; they are usually repeats but may differ in a detail not shown here. Identical values can stand only once. Like-named read-outs stand apart in the source and are kept apart here.

Assays:
[1] = Phase 1 clinical trial, Part II, muscle biopsy: concentration in quadriceps muscle; format: in vivo, human (healthy male volunteers); details: for Kp (total muscle concentration divided by plasma concentration) / Kp: muscle Day 13 / plasma Day 14 at 3 hours post dose, geom. mean (geom. % CV); for Kp: quadriceps muscle / plasma, read-out: Kpu (unbound muscle concentration divided by plasma concentration)
Method: For Study part II (for all groups), Concentrations of Compound I were determined in muscle by performing muscle biopsy on quadriceps muscle on day 13, at least 3 hours after morning dose. Plasma and muscle samples were analyzed by LC-MS/MS method. Muscle biopsy was performed to assess the concentration of Compound I in quadriceps muscle. The biopsy was performed on Day 13 at 3 hours post dose at least. Table 9 summarizes the ratios of unbound respective total concentration at Day 13 at 3 hours post dose divided by the plasma concentration on Day 14 at 3 hours post dose.

[2] = Phase 1b study in RYR1-Related Myopathy patients, plasma pharmacokinetics; format: in vivo, human (RYR1-Related Myopathy patients); details: for Ctrough_D13 / concentration at 13 day: Day 13 trough; for concentration at 13 day: read-out: Ctrough_D13; for AUC(0-inf): read-out: AUC0-inf
Method: A Phase 1b study is performed in RYR1-Related Myopathy (RYR1-RM) affected individuals. Compound I was administered in a gastro-resistant tablet according to Example 3 at daily doses. The formulation comprised 20 mg Compound I (based on the mass of 4-[(7-methoxy-2,3-dihydro-1,4-benzothiazepin-4(5H)yl)methyl]benzoic acid). The first three participants were dosed with 120 mg of Compound I (6×20 mg tablets) daily for approximately 28 days. The second group was dosed with 200 mg of Compound I (10×20 mg tablets daily for approximately 28 days. Bloods for PK assessments were at baseline (Day 0, 24h PK), at the study mid-point (day 14±2 days, trough PK), and at the final study visit (day 28, 24h PK). Pharmacokinetic analysis was performed on plasma samples. PK parameters are set forth below: [table]

[3] = 120 mg oral daily for 28 days, Day 28, n 3, Max
[4] = 120 mg oral daily for 28 days, Day 28, n 3, Median
[5] = 120 mg oral daily for 28 days, Day 28, n 3, Min
[6] = 120 mg oral daily for 28 days, Day 28, n 3, arithmetic mean
[7] = 120 mg oral daily for 28 days, Day 28, n 3, geometric mean
[8] = human, plasma, po, 120 mg, 120 mg oral daily for 28 days, Day 28, n 3, arithmetic mean
[9] = human, plasma, po, 120 mg, 120 mg oral daily for 28 days, Day 28, n 3, geometric mean

Q: Which results are given for COc1ccc2c(c1)CN(Cc1ccc(C(=O)O)cc1)CCS2.O=C(O)/C=C/C(=O)O [Compound I, 4-[(7-methoxy-2,3-dihydro-1,4-benzothiazepin-4(5H)yl)methyl]benzoic acid hemifumarate]?
A: Kp (total muscle concentration divided by plasma concentration) ([1]; 20 mg once daily): 0.0808 (65.3) (ng/g)/(ng/ml); Kp (total muscle concentration divided by plasma concentration) ([1]; 60 mg once daily): 0.0640 (22.6) (ng/g)/(ng/ml); Kp (total muscle concentration divided by plasma concentration) ([1]; 120 mg once daily): 0.0636 (49.9) (ng/g)/(ng/ml); Kp (total muscle concentration divided by plasma concentration) ([1]; 240 mg once daily): 0.0440 (30.0) (ng/g)/(ng/ml); Dose proportionality of median unbound and total concentrations in quadriceps muscle ([1]; 20-240 mg once daily): appeared dose proportional; Kp, range of geometric mean ratios across doses ([1]; dose range 20-240 mg): 0.04-0.08 (ng/g)/(ng/mL); Kp at 3 h ([1]; male, human, quadriceps muscle (unbound) / plasma, oral, dose range 20-240 mg, read-out: Kpu, range of geometric mean ratios across doses): 0.0081 to 0.0106; Kp ([1]; male, human, oral, 20 mg once daily): 0.0106; Kp ([1]; male, human, oral, 60 mg once daily): 0.01; Kp ([1]; male, human, oral, 120 mg once daily): 0.0081; Kp ([1]; male, human, oral, 240 mg once daily): 0.0081; AUC0-tau [2, 3]: 287 µg·h/mL; Cmax, ss [2, 3]: 21300 ng/mL; Cmin [2, 3]: 7760 ng/mL; Tmax, ss [2, 3]: 6.00 h; Tmin [2, 3]: 24.00 h; Cmin [2, 4]: 7020 ng/mL; Tmin [2, 4]: 24.000 h; AUC0-tau [2, 5]: 243 µg·h/mL; Cmax, ss [2, 5]: 16900 ng/mL; Cmin [2, 5]: 5800 ng/mL; Tmin [2, 5]: 1.00 h; Cmin [2, 6]: 6860 ng/mL; Tmin [2, 6]: 16.333 h; Cmin [2, 7]: 6811 ng/mL; Tmin [2, 7]: 8.320 h; RA_AUC ([2]; 120 mg oral daily, AUCtau Day 28/AUC0-24 Day 1, n 3, Max): 1.64; RA_AUC ([2]; 120 mg oral daily, AUCtau Day 28/AUC0-24 Day 1, n 3, Median): 1.618; RA_AUC ([2]; 120 mg oral daily, AUCtau Day 28/AUC0-24 Day 1, n 3, Min): 1,50; RA_AUC ([2]; 120 mg oral daily, AUCtau Day 28/AUC0-24 Day 1, n 3, arithmetic mean): 1.587; RA_Cmax ([2]; 120 mg oral daily, Cmax Day 28/Cmax Day 1, n 3, Max): 1.72; RA_Cmax ([2]; 120 mg oral daily, Cmax Day 28/Cmax Day 1, n 3, Median): 1.523; RA_Cmax ([2]; 120 mg oral daily, Cmax Day 28/Cmax Day 1, n 3, Min): 1.21; RA_Cmax ([2]; 120 mg oral daily, Cmax Day 28/Cmax Day 1, n 3, arithmetic mean): 1.485; Ctrough_D13 ([2]; 120 mg oral daily, n 3, Median): 8040 ng/mL; Ctrough_D13 ([2]; 120 mg oral daily, n 3, Min): 6710 ng/mL; Ctrough_D13 ([2]; 120 mg oral daily, n 3, geometric mean): 7970 ng/mL; Time of Cmin, individual values ([2]; 120 mg oral daily, Day 28, 1 for 1 subject, 24 for two subjects): 1 h and 24 h; Tmax,ss, individual values ([2]; 120 mg oral daily, Day 28, 4 for two participants, 6 for the third subject): 6 h; AUC ([2]; human, plasma, po, 120 mg, 120 mg oral daily for 28 days, Day 28, n 3, Median, read-out: AUC0-tau): 285 µg·h/mL; Cmax ([2]; human, plasma, po, 120 mg, 120 mg oral daily for 28 days, Day 28, n 3, Median, read-out: Cmax, ss): 19800 ng/mL; Tmax ([2]; human, plasma, po, 120 mg, 120 mg oral daily for 28 days, Day 28, n 3, Median, read-out: Tmax): 4 h; Cmax at 28 days [2, 8]: 19300 ng/mL; Tmax at 28 days [2, 8]: 4.67 h; AUC ([2]; human, plasma, po, 120 mg, 120 mg oral daily for 28 days, Day 28, n 3, arithmetic mean, read-out: AUC0-tau): 272 µg·h/mL; Cmax at 28 days [2, 9]: 19200 ng/mL; Tmax at 28 days [2, 9]: 4.58 h; AUC ([2]; human, plasma, po, 120 mg, 120 mg oral daily for 28 days, Day 28, n 3, geometric mean, read-out: AUC0-tau): ~271 µg·h/mL; Cmax ([2]; human, plasma, po, 120 mg, 120 mg oral daily for 28 days, Day 28, n 3, geometric mean, read-out: Cmax, ss): ~19200 ng/mL; concentration at 13 day ([2]; human, plasma, po, 120 mg, 120 mg oral daily, n 3, Max): 9400 ng/mL; concentration at 13 day ([2]; human, plasma, po, 120 mg, 120 mg oral daily, n 3, arithmetic mean): 8050 ng/mL; concentration at 13 day ([2]; human, plasma, po, 120 mg, 120 mg oral daily, n 3, geometric mean): 7970 ng/mL; Tmax ([2]; human, plasma, po, 120 mg, 120 mg oral daily, Day 28, 4 for two participants, 6 for the third subject, read-out: Tmax,ss, individual values): 4 h; AUC ([2]; human, plasma, po, 120 mg, 120 mg oral daily, Day 28, read-out: AUC0-tau, individual values): 243 to 287 µg·h/mL; Cmax ([2]; human, plasma, po, 120 mg, 120 mg oral daily, Day 28, read-out: Cmax,ss, individual values): 16900 to 21300 ng/mL; concentration at 28 day ([2]; human, plasma, po, 120 mg, 120 mg oral daily, Day 28, read-out: Cmin, individual values): 5800 to 7760 ng/mL; AUC(0-t) ([2]; human, plasma, po, 120 mg, single oral 120 mg, Day 1, three subjects, Median, read-out: AUC0-24): 175 µg·h/mL; AUC(0-inf) ([2]; human, plasma, po, 120 mg, single oral 120 mg, Day 1, three subjects, Median): 274 µg·h/mL; AUC(0-t) ([2]; human, plasma, po, 120 mg, single oral 120 mg, Day 1, three subjects, Median, read-out: AUC0-t): 175 µg·h/mL; Cmax ([2]; human, plasma, po, 120 mg, single oral 120 mg, Day 1, three subjects, Median, read-out: Cmax): 12400 ng/mL; Tmax ([2]; human, plasma, po, 120 mg, single oral 120 mg, Day 1, three subjects, Median, read-out: Tmax): 3 h; half-life ([2]; human, plasma, po, 120 mg, single oral 120 mg, Day 1, three subjects, Median, read-out: t½ (converted)): 14.4 h; AUC(0-t) ([2]; human, plasma, po, 120 mg, single oral 120 mg, Day 1, three subjects, arithmetic mean, read-out: AUC0-24): 172 µg·h/mL; AUC(0-inf) ([2]; human, plasma, po, 120 mg, single oral 120 mg, Day 1, three subjects, arithmetic mean): 259 µg·h/mL; AUC(0-t) ([2]; human, plasma, po, 120 mg, single oral 120 mg, Day 1, three subjects, arithmetic mean, read-out: AUC0-t): 172 µg·h/mL
